The results in this text go back to article PMC10642967, “Identification of a carbohydrate recognition motif of purinergic receptors” (eLife, 2023).

The structures appear in SMILES notation. Changes are numbered by the printed parent chain.

Assay [1] has as its target T1, P2Y12-K280A (Homo sapiens, UniProt Q9H244, K280A).
T1 construct: HA (N); expressed in transfected cells; host or cells: HEK293
In words: Intracellular Ca2+ mobilization, HEK293 expressing P2Y12 K280A mutant. In kind it is cell-based. The note with it: calcium mobilization, mean ± SEM. How it is done: (§1) Intracellular Ca^2+ assays were carried out as follows.
(Calcium assays in cells follow changes in intracellular calcium, usually with a dye or a luminescent sensor.)

For assay [2], the target named is T2, P2Y12-F277A (Homo sapiens, UniProt Q9H244, F277A).
T2 construct: HA (N); expressed in transfected cells; host or cells: HEK293
Briefly: Intracellular Ca2+ mobilization, HEK293 expressing P2Y12 F277A mutant. In kind it is cell-based. The note with it: calcium mobilization, mean ± SEM. The procedure: as §1

In assay [3] the target is T3, P2Y12-E281A (Homo sapiens, UniProt Q9H244, E281A).
T3 construct: HA (N); expressed in transfected cells; host or cells: HEK293
In words: Intracellular Ca2+ mobilization, HEK293 expressing P2Y12 E281A mutant. In kind it is cell-based. The note with it: calcium mobilization, mean ± SEM. The procedure: as §1

Assay [4] concerns the target T4, human P2Y12 (Homo sapiens, UniProt Q9H244).
T4 construct: HA (N); expressed in transfected cells; host or cells: HEK293
In words: Intracellular Ca2+ mobilization, HEK293 co-transfected with P2Y12 wild-type and Gαqi5. Format: cell-based. As to conditions: calcium mobilization, HEK293, P2Y12 WT + Gαqi5, mean ± SEM. How it is done:
as §1

The target in assay [5] is T5, P2Y12-D84A (Homo sapiens, UniProt Q9H244, D84A).
T5 construct: HA (N); expressed in transfected cells; host or cells: HEK293
Briefly: Intracellular Ca2+ mobilization, HEK293 expressing P2Y12 D84A mutant. In kind it is cell-based. As to conditions: calcium mobilization, mean ± SEM. The procedure:
as §1

Assay [6] concerns the target T6, P2Y12-K80A (Homo sapiens, UniProt Q9H244, K80A).
T6 construct: HA (N); expressed in transfected cells; host or cells: HEK293
Briefly: Intracellular Ca2+ mobilization, HEK293 expressing P2Y12 K80A mutant. As to conditions: calcium mobilization, mean ± SEM. Format: cell-based. How it is done: as §1

The target of assay [7] is T7, P2Y14-K77A (Homo sapiens, UniProt Q15391, K77A).
T7 construct: HA (N); expressed in transfected cells; host or cells: HEK293
T7 sequence (Q15391 1-338 K77A): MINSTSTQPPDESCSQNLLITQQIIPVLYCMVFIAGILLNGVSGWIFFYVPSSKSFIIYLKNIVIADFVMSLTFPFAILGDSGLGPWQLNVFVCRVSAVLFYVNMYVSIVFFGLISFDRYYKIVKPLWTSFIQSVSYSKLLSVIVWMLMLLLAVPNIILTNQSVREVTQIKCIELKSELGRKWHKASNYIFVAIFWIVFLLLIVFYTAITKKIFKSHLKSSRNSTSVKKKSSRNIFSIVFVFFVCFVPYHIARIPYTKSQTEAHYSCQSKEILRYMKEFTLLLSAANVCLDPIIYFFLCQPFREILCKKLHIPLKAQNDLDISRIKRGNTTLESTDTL
Briefly: Intracellular Ca2+ mobilization, HEK293 expressing P2Y14 K77A mutant. In kind it is cell-based. The note with it: calcium mobilization, mean ± SEM.

The target in assay [8] is T8, P2Y14-D81A (Homo sapiens, UniProt Q15391, D81A).
T8 construct: HA (N); expressed in transfected cells; host or cells: HEK293
T8 sequence (Q15391 1-338 D81A): T7 sequence (Q15391 1-338 K77A) with A77K, D81A
In words: Intracellular Ca2+ mobilization, HEK293 expressing P2Y14 D81A mutant. Format: cell-based. The note with it: calcium mobilization, mean ± SEM.

Assay [9] concerns the target T9, human P2Y14 (Homo sapiens, UniProt Q15391).
T9 construct: HA (N); expressed in transfected cells; host or cells: HEK293
T9 sequence (Q15391 1-338): T7 sequence (Q15391 1-338 K77A) with A77K
In words: Intracellular Ca2+ mobilization, HEK293 co-transfected with P2Y14 wild-type and Gαqi5. Format: cell-based. As to conditions: calcium mobilization, HEK293, P2Y14 WT + Gαqi5, mean ± SEM.

Assay [10] addresses T10, P2Y14-K277A (Homo sapiens, UniProt Q15391, K277A).
T10 sequence (Q15391 1-338 K277A): T7 sequence (Q15391 1-338 K77A) with A77K, K277A
Briefly: cell-based.

Assay [11] addresses T11, P2Y14-E278A (Homo sapiens, UniProt Q15391, E278A).
T11 construct: HA (N); expressed in transfected cells; host or cells: HEK293
T11 sequence (Q15391 1-338 E278A): T7 sequence (Q15391 1-338 K77A) with A77K, E278A
Briefly: Intracellular Ca2+ mobilization, HEK293 expressing P2Y14 E278A mutant. In kind it is cell-based. The note with it: calcium mobilization, mean ± SEM.

T2 sequence (Q9H244 whole entry F277A): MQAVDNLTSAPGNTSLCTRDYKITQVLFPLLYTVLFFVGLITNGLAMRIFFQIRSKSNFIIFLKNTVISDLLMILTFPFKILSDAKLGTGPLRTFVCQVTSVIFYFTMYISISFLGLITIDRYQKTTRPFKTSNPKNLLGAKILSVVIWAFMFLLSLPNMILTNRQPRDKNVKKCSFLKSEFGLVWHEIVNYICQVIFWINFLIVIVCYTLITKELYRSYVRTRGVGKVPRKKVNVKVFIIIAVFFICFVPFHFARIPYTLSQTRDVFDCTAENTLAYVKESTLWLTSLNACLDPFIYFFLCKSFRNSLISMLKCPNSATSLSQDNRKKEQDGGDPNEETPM
T5 sequence (Q9H244 whole entry D84A): as the sequence (Q9H244 whole entry F277A) above, with D84A, A277F counted along it
T1 sequence (Q9H244 whole entry K280A): as the sequence (Q9H244 whole entry F277A) above, with A277F, K280A counted along it
T3 sequence (Q9H244 whole entry E281A): as the sequence (Q9H244 whole entry F277A) above, with A277F, E281A counted along it
T6 sequence (Q9H244 whole entry K80A): as the sequence (Q9H244 whole entry F277A) above, with K80A, A277F counted along it
T4 sequence (Q9H244 whole entry): as the sequence (Q9H244 whole entry F277A) above, with A277F counted along it

With `Nc1ncnc2c1ncn2C1OC(COP(=O)(O)OP(=O)(O)OC2OC(CO)C(O)C(O)C2O)C(O)C1O` (stereo not shown) [ADP-Glc, ADP-glucose], the EC50 (usually the concentration giving half of the maximal effect) is 41.8 ± 3 µM in assay [1]; 15.4 ± 1.1 µM in assay [2]; 75.3 ± 10.1 µM in [3]; 3.4 ± 0.4 µM in assay [4]; 29.3 ± 1.2 µM in [5]; 96.9 ± 14.4 µM in [6].
Take `Nc1ncnc2c1ncn2C1OC(COP(=O)(O)OP(=O)(O)OC2OC(C(=O)O)C(O)C(O)C2O)C(O)C1O` (stereo not shown) [ADP-GlcA, ADP-glucuronic acid]: the EC50 in assay [1] was found to be 18.1 ± 3.3 µM; in [2], 5 ± 0.4 µM; in assay [3] it was 28.2 ± 4.1 µM; in assay [4], 1.3 ± 0.1 µM; in assay [5], 9.4 ± 0.3 µM; in [6], 35.2 ± 0.5 µM.
Turning to `Nc1ncnc2c1ncn2C1OC(COP(=O)(O)OP(=O)(O)OC2OC(CO)C(O)C(O)C2O)C(O)C1O` (stereo not shown) [ADP-Man, ADP-mannose], the EC50 in [1] is over 150 µM; in assay [2], 128 ± 17.6 µM; in assay [3] it was over 150 µM; in assay [4], 12.3 ± 0.9 µM; in assay [5], over 150 µM; in [6], over 150 µM.
As to `O=C(O)C1OC(OP(=O)(O)OP(=O)(O)OCC2OC(n3ccc(=O)[nH]c3=O)C(O)C2O)C(O)C(O)C1O` (stereo not shown) [UDP-GlcA, UDP-glucuronic acid], the EC50 is over 3 µM in assay [7]; 0.172 ± 0.0098 µM in assay [8]; 0.0599 ± 0.0048 µM in assay [9]; over 3 µM in assay [10]; 0.0382 ± 0.0022 µM in assay [11].
In the case of `CC(=O)N[C@H]1[C@@H](OP(=O)(O)OP(=O)(O)OC[C@H]2O[C@@H](n3ccc(=O)[nH]c3=O)[C@H](O)[C@@H]2O)O[C@H](CO)[C@@H](O)[C@@H]1O` [UDP-GlcNAc, UDP-N-acetylglucosamine], the EC50 in assay [7] is over 3 µM; in assay [8] it was 3 ± 0.174 µM; in assay [9], 0.184 ± 0.0118 µM; in [10], 0.549 ± 0.0744 µM; in assay [11], 0.624 ± 0.102 µM.
